Experimental data from patent US5530126A, “Process for the preparation of substituted 6-(pyrazol-3yl)-1,4-benzoxazin-3-ones” (Monsanto Company, priority 1994, dated 1996).
Values joined by “and” are separate entries in the source; they are usually repeats but may differ in a detail not shown here. Equal entries are not always repeated.

Assays:
Assay type in all cases: in vivo
[1] = tested on: Velvetleaf; experiment: Post-emergence herbicide test; settings: for inhibition at 11210 g/ha: Abutilon theophrasti, 11.21 kg/ha, read-out: % plant inhibition (Vele)
Description: (§1) Topsoil is placed in aluminum pans having holes in the bottom and compacted to a depth of 0.95 to 1.27 cm from the top of the pan. A predetermined number of seeds of each of several dicotyledonous and monocotyledonous annual plant species and/or vegetative propagules for the perennial plant species are placed on the soil and pressed into the soil surface. The seeds and/or vegetative propagules are covered with soil and leveled. The pans are then placed on a bench in the greenhouse and watered from below as needed. After the plants reach the desired age (two to three weeks), each pan, is removed individually to a spraying chamber and sprayed by means of an atomizer, operating at a spray pressure of 170.3 kPa (10 psig) at the application rates noted. In the spray solution is an amount of an emulsifying agent mixture to give a spray solution or suspension which contains about 0.4% by volume of the emulsifier. The spray solution or suspension contains a sufficient amount of the candidate chemical in order to give application rates of the active ingredient corresponding to those shown in Tables 8 and 8A, while applying a total amount of solution or suspension equivalent to 1870 L/Ha (200 gallons/acre). The pans were returned to the greenhouse and watered as before and the injury to the plants as compared to the control is observed at approximately 10-14 days (usually 11 days) and in some instances observed again at 24-28 days (usually 25 days) after spraying. The post-emergent herbicidal activity shown in these tables is the percent inhibition of each plant species.

[2] = tested on: Cocklebur; experiment: Post-emergence herbicide test; settings: for inhibition at 11210 g/ha: Xanthium strumarium, 11.21 kg/ha, read-out: % plant inhibition (Cobu)
Description: as §1

[3] = tested on: Morningglory; experiment: Post-emergence herbicide test; settings: for inhibition at 11210 g/ha: 11.21 kg/ha
Description: as §1

[4] = tested on: Yellow nutsedge; experiment: Post-emergence herbicide test; settings: Cyperus, read-out: % plant inhibition (Yens); for inhibition at 11210 g/ha: 11.21 kg/ha
Description: as §1

[5] = tested on: Wild buckwheat; experiment: Pre-emergence herbicide test; settings: Fallopia convolvulus, read-out: % plant inhibition (Wibw); for inhibition at 11210 g/ha: 11.21 kg/ha
Method: (§2) The tests for pre-emergence herbicide activity are conducted as follows:
(§3) Topsoil is placed in an aluminum pan and compacted to a depth of 0.95 to 1.27 cm from the top of the pan. On the top of the soil is placed a predetermined number of seeds of each of several monocotyledonous and dicotyledonous annual plant species and/or vegetative propagules of various perennial plant species. A known amount of the active ingredient dissolved or suspended in an organic solvent, e.g., acetone, or water as carrier is then applied directly to the seed bed, which is then covered with a layer of untreated topsoil to level fill the pan. After treatment, the pans are moved to a greenhouse bench where they are watered from below as needed to give adequate moisture for germination and growth.
(§4) Approximately 10-14 days (usually 11 days) after seeding and treating, the pans are observed and the results (% inhibition) are recorded.
(§5) Tables 7 and 7A below summarize the results of the pre-emergence herbicidal activity tests of compounds of this invention in weeds. The herbicidal rating shown in these tables is the percent inhibition of each plant species. The plant species usually regarded as weeds which are utilized in one set of tests, the data for which are shown in the tables, are identified by letter headings above the columns in accordance with the following legend: […]

[6] = tested on: Seedling johnsongrass; experiment: Pre-emergence herbicide test; settings: Sorghum halepense, read-out: % plant inhibition (Sejg); for inhibition at 11210 g/ha: 11.21 kg/ha
Method: as §2, §3, §4, §5

[7] = tested on: Barnyardgrass; experiment: Pre-emergence herbicide test; settings: Echinochloa crus-galli, read-out: % plant inhibition (Bygr); for inhibition at 11210 g/ha: 11.21 kg/ha
Method: as §2, §3, §4, §5

[8] = tested on: Velvetleaf; experiment: Pre-emergence herbicide test; settings: Abutilon theophrasti, read-out: % plant inhibition (Vele); for inhibition at 11210 g/ha: 11.21 kg/ha
Method: as §2, §3, §4, §5

[9] = tested on: Cocklebur; experiment: Pre-emergence herbicide test; settings: Xanthium strumarium, read-out: % plant inhibition (Cobu); for inhibition at 11210 g/ha: 11.21 kg/ha
Method: as §2, §3, §4, §5

[10] = tested on: Downy Brome; experiment: Pre-emergence herbicide test; settings: Bromus tectorum, read-out: % plant inhibition (Dobr); for inhibition at 11210 g/ha: 11.21 kg/ha
Method: as §2, §3, §4, §5

[11] = tested on: Morningglory; experiment: Pre-emergence herbicide test; settings: Ipomoea, read-out: % plant inhibition (Mogl); for inhibition at 11210 g/ha: 11.21 kg/ha
Method: as §2, §3, §4, §5

[12] = tested on: Annual bluegrass; experiment: Pre-emergence herbicide test; settings: read-out: % plant inhibition (Anbg); for inhibition at 11210 g/ha: 11.21 kg/ha
Method: as §2, §3, §4, §5

[13] = tested on: Indian Mustard; experiment: Pre-emergence herbicide test; settings: Brassica juncea, read-out: % plant inhibition (Inmu); for inhibition at 11210 g/ha: 11.21 kg/ha
Method: as §2, §3, §4, §5

[14] = tested on: Yellow nutsedge; experiment: Pre-emergence herbicide test; settings: Cyperus, read-out: % plant inhibition (Yens); for inhibition at 11210 g/ha: 11.21 kg/ha
Method: as §2, §3, §4, §5

[15] = tested on: Seedling johnsongrass; experiment: Post-emergence herbicide test; settings: Sorghum halepense, 11.21 kg/ha, read-out: % plant inhibition (Sejg)
Description: as §1

[16] = tested on: Barnyardgrass; experiment: Post-emergence herbicide test; settings: Echinochloa crus-galli, 11.21 kg/ha, read-out: % plant inhibition (Bygr)
Description: as §1

[17] = tested on: Downy Brome; experiment: Post-emergence herbicide test; settings: Bromus tectorum, 11.21 kg/ha, read-out: % plant inhibition (Dobr)
Description: as §1

[18] = tested on: Annual bluegrass; experiment: Post-emergence herbicide test; settings: 11.21 kg/ha, read-out: % plant inhibition (Anbg)
Description: as §1

[19] = tested on: Indian Mustard; experiment: Post-emergence herbicide test; settings: Brassica juncea, 11.21 kg/ha, read-out: % plant inhibition (Inmu)
Description: as §1

[20] = tested on: Wild buckwheat; experiment: Post-emergence herbicide test; settings: Fallopia convolvulus, 11.21 kg/ha, read-out: % plant inhibition (Wibw)
Description: as §1

[21] = Ipomoea, read-out: % plant inhibition (Mogl)

SMILES | inhibition at 11210 g/ha [15] | inhibition at 11210 g/ha [16] | inhibition at 11210 g/ha [1] | inhibition at 11210 g/ha [2] | inhibition at 11210 g/ha [17] | inhibition at 11210 g/ha [3, 21] | inhibition at 11210 g/ha [18] | inhibition at 11210 g/ha [19] | inhibition at 11210 g/ha [4] | inhibition at 11210 g/ha [5] | inhibition at 11210 g/ha [6] | inhibition at 11210 g/ha [7] | inhibition at 11210 g/ha [8] | inhibition at 11210 g/ha [9] | inhibition at 11210 g/ha [10] | inhibition at 11210 g/ha [11] | inhibition at 11210 g/ha [12] | inhibition at 11210 g/ha [13] | inhibition at 11210 g/ha [14] | other results
Cn1nc(-c2cc(OCC(=O)OC(C)(C)C)c(Cl)cc2F)c(Cl)c1C(F)(F)F [Compound 294, (2-Chloro-5-(4-chloro-1-methyl-5-(trifluoromethyl)-1H-pyrazol-3-yl)-4-fluorophenoxy)acetic acid, 1,1-dimethylethyl ester] |  |  |  |  |  |  |  |  |  |  |  |  |  |  |  |  |  |  |  | % plant inhibition (Vele) ([1]; 1.12 kg/ha): 50% and 80%; % plant inhibition (Cobu) ([2]; 1.12 kg/ha): 50%; % plant inhibition (Mogl) ([3]; 1.12 kg/ha): 90%; inhibition at 1120 g/ha ([3]; Ipomoea, 1.12 kg/ha, read-out: % plant inhibition (Mogl)): 80%; inhibition at 1120 g/ha ([4]; 1.12 kg/ha): 0%; inhibition at 1120 g/ha ([5]; 1.12 kg/ha): 90%; inhibition at 1120 g/ha ([6]; 1.12 kg/ha): 20%; inhibition at 1120 g/ha ([7]; 1.12 kg/ha): 20%; inhibition at 1120 g/ha ([8]; 1.12 kg/ha): 70%; inhibition at 1120 g/ha ([9]; 1.12 kg/ha): 80%; inhibition at 1120 g/ha ([10]; 1.12 kg/ha): 20%; inhibition at 1120 g/ha ([11]; 1.12 kg/ha): 70%; inhibition at 1120 g/ha ([12]; 1.12 kg/ha): 0%; inhibition at 1120 g/ha ([13]; 1.12 kg/ha): 0%; inhibition at 1120 g/ha ([14]; 1.12 kg/ha): 0%
Cn1nc(C(F)(F)F)c(Cl)c1-c1cc(F)c([N+](=O)[O-])cc1F [Compound 70] | 10% | 40% | 50% | 30% | 10% | 40% | 10% | 20% | 0% | 80% | 80% | 40% | 90% | 20% | 20% | 80% | 40% | 80% | 0% | 
Cn1nc(C(F)(F)F)c(Cl)c1-c1cc(F)c(Cl)cc1Cl [Compound 80] | 0% | 0% | 60% | 10% | 0% | 10% | 0% | 0% | 0% | 90% | 80% | 70% | 100% | 60% | 70% | 60% | 90% | 80% | 0% | 
Cn1nc(C(F)(F)F)c(Cl)c1-c1ccc([N+](=O)[O-])cc1 [Compound 65] | 50% | 70% | 70% | 40% | 10% | 50% | 0% | 30% | 0% | 80% | 70% | 30% | 90% | 0% | 0% | 20% | 70% |  | 0% | inhibition at 11210 g/ha [20]: 70%
